Source: patent US8367079B2, “Liquid preservative compositions” (Rhodia Operations, priority 2008, dated 2013)
One block for each compound: values may come before it.

Experiments:
Format in all cases: cell-based
Aspergillus niger = assay: Preservative challenge test in cleanser base, plate count; details: inoculum about 1×10^5 to 1×10^6 cfu/mL, about 22° C.; for Day-7 Plate Count, AN: 7 days after challenge; for Day-14 Plate Count, AN: 14 days after challenge
Description: (§1) Several 200-gram samples of a cleanser base were admixed with a variety of preservative compositions, and challenged with selected bacteria and fungi (Escherichia coli, Pseudomonas aeruginosa, Staphylococcus aureus, Aspergillus niger, and Candida albicans) according to the following procedure:
(§2) About 0.5 mL of an aqueous suspension containing about 1×10^6 to about 2×10^7 colony forming units-per-milliliter (cfu/mL) of Aspergillus niger in a pH 7.2 phosphate buffer was transferred to a tube containing about 9.5 mL of a sample of a cleanser base composition to provide an inoculum level of about 1×10^5 to about 1×10^6 cfu/mL. The same procedure was used to challenge samples of the cleanser base with Candida albicans and with a mixed culture of Escherichia coli, Pseudomonas aeruginosa, and Staphylococcus aureus, at about the same inoculum levels. The challenged samples were stored at an ambient room temperature of about 22° C. At 7 days and 14 days after challenge, aliquots from each sample were diluted according to the following procedure: about 1 mL of each challenged sample was aseptically transferred into a tube containing about 9 mL of Dey/Engley (D/E) neutralizing broth with thorough mixing to provide a dilution ratio of about 1:10. About […] of each of the 1:10 diluted samples was then aseptically transferred into separate tubes, each tube containing about 9 mL of sterile buffered saline solution, (3.5 g/L phosphoric acid in 0.9 wt. % NaCl solution, adjusted to pH 7.2 with 50 wt. % aqueous sodium hydroxide), with thorough mixing, to provide a dilution ratio of about 1:1000.
(§3) Finally, each of the 1:10 diluted samples and each of the 1:1000 diluted samples were plated according to the following procedure: about 1 mL of each of the diluted samples was plated with Letheen agar (bacteria samples) or Sabouraud dextrose agar (yeast and mold samples). The Letheen agar plates were incubated at 35±2° C. for about 48 hours (about 2 days) in an inverted position, and the resulting microbial colonies were counted. The Sabouraud dextrose agar plates were incubated at 25±2° C. for about 120 hours (about 5 days) in an upright position and the resulting microbial colonies were counted.
(§4) The formulations of the cleanser base and the D/E Neutralizing Broth used in these evaluations are provided in Table 1 and Table 2, respectively.

Candida albicans = assay: as above; details: inoculum about 1×10^5 to 1×10^6 cfu/mL, about 22° C.; for Day-7 Plate Count, CA: 7 days after challenge; for Day-14 Plate Count, CA: 14 days after challenge, TN = too numerous to count
Description: as §1, §2, §3, §4

Escherichia coli = assay: as above; details: inoculum about 1×10^5 to 1×10^6 cfu/mL, about 22° C., TN = too numerous to count; for Day-7 Plate Count, EC: 7 days after challenge; for Day-14 Plate Count, EC: 14 days after challenge
Description: as §1, §2, §3, §4

Pseudomonas aeruginosa = assay: as above; details: inoculum about 1×10^5 to 1×10^6 cfu/mL, about 22° C., TN = too numerous to count; for Day-7 Plate Count, PA: 7 days after challenge; for Day-14 Plate Count, PA: 14 days after challenge
Description: as §1, §2, §3, §4

Staphylococcus aureus = assay: as above; details: inoculum about 1×10^5 to 1×10^6 cfu/mL, about 22° C.; for Day-7 Plate Count, SA: 7 days after challenge; for Day-14 Plate Count, SA: 14 days after challenge
Description: as §1, §2, §3, §4

A. niger 16404 = assay: Minimum Inhibitory Concentration (MIC) evaluation, broth dilution; details: Mueller-Hinton broth, two-fold dilutions, about 35° C. for about 24 hours, visible growth
Description: (§5) In this evaluation, nutrient broth solutions were made with different concentrations of the test compounds, and then all the solutions were spiked with the same concentration of test organism. Growth was indicated by a solution becoming hazy after 24 hours of incubation time. The highest dilution without observable growth is the Minimal Inhibitory Concentration (MIC).
(§6) The following procedure was adopted from the Manual of Clinical Microbiology, 2nd Ed. published by the American Society for Microbiology, ISBN 0-914826-00-X.
(§7) Prepare and sterilize Mueller-Hinton Broth (MH broth) (Fluka) per the manufacturer's instructions (dissolve 23 grams in one liter water and autoclave at 121° C. for 15 minutes minimum).
(§8) The stock antimicrobial solution is diluted (in MH broth) to twice the highest final test concentration desired. Sterile 13×100 mm screw-capped culture tubes are used. Two-fold dilutions are made directly in the tubes. To the first tube is added 2 mL of the working solution of antimicrobial agent. To each remaining tube is added 1 mL of broth. Using aseptic technique, an amount of 1 mL is transferred from the first tube to the second tube and is thoroughly mixed. After thorough mixing, 1 mL is transferred from the second tube to the third tube. This process is repeated through the second to last tube, from which 1 mL is removed and discarded. The final tube receives no antimicrobial agent and serves as a growth control.
(§9) Buffered saline (3.5 g/L phosphoric acid in a 0.9% NaCl solution, pH adjusted to 7.2 with 50 wt. % aqueous NaOH, sterilized by autoclave).
(§10) The organisms are preferably lyophilized Microbiologics E^power E7 microorganisms (mean assay value of between 10 million and 100 million colony forming units or equivalent concentration). The final concentrations of the microorganism in the inoculum should be in the order of 10^6-10^7 cfu/mL.
(§11) 1. Allow unopened vial of microorganism pellets to equilibrate to room temperature.
(§12) 2. Warm 1 tube of 10 mL buffered saline per organism used to about 35-37° C.
(§13) 3. Using sterile forceps, transfer 2 pellets to the saline and return unused pellets to storage.
(§14) 4. Incubate the hydrated material at about 35-37° C. for about 30 minutes.
(§15) 5. Vortex the vials until homogeneous.
(§16) 6. Add 1.0 ml of the diluted culture suspension to each of the previously prepared tubes containing the preservative compositions. The final concentration of preservative is now one-half of the original concentration in each tube.
(§17) All tubes were incubated at about 35° C. for about 24 hours. The tubes were then examined for visible signs of bacterial growth.
(§18) The MIC values from Table 5 were then used to calculate the Fractional Inhibitory Concentration Index (FICI) (sometimes called the Synergy Index) of GCM and GCP versus the various individual test organisms using the following equation. FICI=(MICa/MICA)+(MICb/MICB)

P. aeruginosa 9027 = assay: as above; details: Mueller-Hinton broth, two-fold dilutions, about 35° C. for about 24 hours, visible growth
Description: as §5, §6, §7, §8, §9, §10, §11, §12, §13, §14, §15, §16, §17, §18

S. aureus 6538 = assay: as above; details: Mueller-Hinton broth, two-fold dilutions, about 35° C. for about 24 hours, visible growth
Description: as §5, §6, §7, §8, §9, §10, §11, §12, §13, §14, §15, §16, §17, §18

SMILES: Cn1sccc1=O [Ex. B, 2-methyl-4-isothiazolin-3-one]
Day-7 Plate Count, AN (Aspergillus niger): 1000 cfu
Day-14 Plate Count, AN (Aspergillus niger): 500 cfu
Day-7 Plate Count, CA (Candida albicans): 10500 cfu
Day-14 Plate Count, CA (Candida albicans): 15000 cfu
Day-7 Plate Count, EC (Escherichia coli): 155 cfu
Day-14 Plate Count, EC (Escherichia coli): 10 cfu
Day-7 Plate Count, PA (Pseudomonas aeruginosa): 115 cfu
Day-14 Plate Count, PA (Pseudomonas aeruginosa): <10 cfu
Day-7 Plate Count, SA (Staphylococcus aureus): 215 cfu
Day-14 Plate Count, SA (Staphylococcus aureus): 6500 cfu

SMILES: CCCCCCCC(=O)OCC(O)CO (centres unmarked) [Ex. C, glyceryl caprylate]
Day-7 Plate Count, AN (Aspergillus niger): 1000 cfu
Day-14 Plate Count, AN (Aspergillus niger): 280 cfu
Day-7 Plate Count, CA (Candida albicans): 500 cfu
Day-14 Plate Count, CA (Candida albicans): 485 cfu
Day-7 Plate Count, EC (Escherichia coli): 15 cfu
Day-14 Plate Count, EC (Escherichia coli): 10 cfu
Day-7 Plate Count, PA (Pseudomonas aeruginosa): 7500 cfu
Day-14 Plate Count, PA (Pseudomonas aeruginosa): 117500 cfu
Day-7 Plate Count, SA (Staphylococcus aureus): <10 cfu
Day-14 Plate Count, SA (Staphylococcus aureus): 1000 cfu

SMILES: OCCc1ccccc1 [Ex. D, phenethyl alcohol]
Day-7 Plate Count, AN (Aspergillus niger): 25 cfu
Day-14 Plate Count, AN (Aspergillus niger): <10 cfu
Day-7 Plate Count, CA (Candida albicans): 91000 cfu
Day-14 Plate Count, CA (Candida albicans): 2000 cfu
Day-7 Plate Count, EC (Escherichia coli): 380 cfu
Day-14 Plate Count, EC (Escherichia coli): 1000 cfu
Day-7 Plate Count, PA (Pseudomonas aeruginosa): 10 cfu
Day-14 Plate Count, PA (Pseudomonas aeruginosa): 1000 cfu
Day-7 Plate Count, SA (Staphylococcus aureus): 7500 cfu
Day-14 Plate Count, SA (Staphylococcus aureus): 1000 cfu

SMILES: O=C([O-])c1ccccc1.[Na+] [Ex. E, sodium benzoate]
Day-7 Plate Count, AN (Aspergillus niger): 1500 cfu
Day-14 Plate Count, AN (Aspergillus niger): 3500 cfu
Day-7 Plate Count, CA (Candida albicans): 336500 cfu
Day-7 Plate Count, SA (Staphylococcus aureus): 9000 cfu
Day-14 Plate Count, SA (Staphylococcus aureus): 500 cfu

MIC Values, A. niger (A. niger 16404): 2.0%
MIC Values, P. aeruginosa (P. aeruginosa 9027): 1.0%
MIC Values, S. aureus (S. aureus 6538): 1.0%
SMILES: CCCCCCCC(=O)OCC(O)CO (centres unmarked) [GC, glyceryl caprylate]

SMILES: Cn1sccc1=O [MI, 2-methyl-4-isothiazolin-3-one]
MIC Values, A. niger (A. niger 16404): 0.1%
MIC Values, P. aeruginosa (P. aeruginosa 9027): 0.008%
MIC Values, S. aureus (S. aureus 6538): 0.1%

MIC Values, A. niger (A. niger 16404): 1.0%
MIC Values, P. aeruginosa (P. aeruginosa 9027): 0.9%
MIC Values, S. aureus (S. aureus 6538): 0.9%
SMILES: OCCc1ccccc1 [PEA, phenethyl alcohol]
